The values below come from PubChem BioAssay AID652188 (Johns Hopkins Ion Channel Center, 2013).

Active and inactive are the calls of the source.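 Rule for the calls: active = peak TASK1 channel inhibition over 30% at some tested dose, plus a fitted dose response curve; inactive = no inhibition at any dose, or no curve fitted.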

The first assay concerns CHO parental cells, FluxOR thallium flux counter-screen. Nature of the assay: thallium flux inhibition in parental CHO, SAR follow-up, counter-screen for TASK1 inhibitor project, cell-based, FluxOR thallium flux, CRC (AID 652188).
Settings: not given
By IC50 is commonly meant the concentration at which inhibition is half-maximal. With `CCOc1ccccc1C(=O)Nc1cccc(NC(=O)c2cccc(C)c2)c1`, the IC50 was 1240 nM. For `O=C(Nc1cccc(NC(=O)c2ccccc2)c1)c1ccccc1`, the IC50 was 240 nM.

Test system in a further assay: not listed separately
The description is as above. As to conditions: CHO parental cells, FluxOR thallium flux counter-screen; at 30 µM (top of the series).
As to `COc1ccc(CC(=O)NCc2ccccc2-c2ccccc2C(=O)NCc2ccc(F)cc2F)cc1`, the flux ratio, lower = inhibition was 0.295 (inactive).

Regarding `Cc1cccc(C(=O)Nc2cccc(NC(=O)c3cccc(C(F)(F)F)c3)c2)c1`, the flux ratio, lower = inhibition was 0.304 (inactive). Turning to `Cc1cccc(C(=O)Nc2cccc(NC(=O)c3cccc(F)c3)c2)c1`, the flux ratio, lower = inhibition is 0.313 (inactive). The same measure, in the same setting: the same measure for `COc1ccccc1C(=O)Nc1cc(NC(=O)c2cccc(C)c2)ccc1F`: 0.306 (inactive); for `COc1ccccc1C(=O)Nc1cccc(NC(=O)c2cccc(C)c2)c1`: 0.322 (inactive). Same read-out and setting: the same measure for `COc1ccc(F)cc1C(=O)Nc1cccc(NC(=O)c2cccc(C)c2)c1`: 0.311 (inactive); for `Cc1cccc(C(=O)Nc2cccc(NC(=O)c3ccncc3)c2)c1`: 0.32 (inactive); for `COc1c(F)cccc1C(=O)Nc1cccc(NC(=O)c2cccc(C)c2)c1`: 0.317 (inactive). `Cc1cccc(C(=O)Nc2cccc(NC(=O)c3ccccc3)c2)c1`: the flux ratio, lower = inhibition is 0.319 (inactive). Same read-out and setting: with `COc1cnccc1C(=O)Nc1cccc(NC(=O)c2cccc(C)c2)c1` the figure was 0.339 (inactive); with `O=C(Nc1cccc(NC(=O)c2cccc(F)c2)c1)c1ccccc1`, 0.326 (inactive). Still for that read-out and setting: the same measure for `Cc1cccc(C(=O)Nc2cccc(NC(=O)c3cccs3)c2)c1`: 0.334 (inactive); for `CCCC(=O)C1CCN(c2ncnc3c2CN(C(=O)c2ccc(-c4ccccc4)cc2)CC3)CC1`: 0.302 (inactive); for `COc1ccccc1C(=O)Nc1cc(NC(=O)c2ccccc2C(C)C)ccc1F`: 0.298 (inactive).
